Results from patent US7476684B2, “Compounds for the treatment of neurological, psychiatric or pain disorders” (AstraZeneca AB, priority 2005, dated 2009).

Columns and labels:
[1] = Moisture sorption / deliquescence of the salt versus relative humidity; assay type: physicochemical
[2] = Intrinsic dissolution rate, low-volume rotating disc method; assay type: physicochemical; conditions: salt made at 1 g scale from ethanol; disc 0.07 cm^2, 500 rpm, 50 mL USP Phosphate buffer pH 6.8 at 37° C.
Procedure: The salt manufactured at 1 g scale from ethanol was further investigated for its intrinsic dissolution rate and compared to the free base of 4-(5-{(1R)-1-[5-(3-chlorophenyl)isoxazol-3-yl]ethoxy}-4-methyl-4H-1,2,4-triazol-3-yl)pyridine. […] Dissolution rates of the base and salt were measured with a low-volume rotating disc method. Discs were compressed from pure compound and centrically mounted in a disc holder with an exposed area of 0.07 cm^2. The disc holder rotated at 500 rpm immersed in 50 mL USP Phosphate buffer pH 6.8 at 37° C. The compound was analyzed UV-Online by a Spectrophotometer with a flow cell and a peristaltic pump with continuous circulation.

increased moisture sorption at relative humidity ([1]; crystalline hydrochloride salt)	intrinsic dissolution rate as compared to the free base [2] [times]	deliquesce at relative humidity ([1]; first batch, oiled salt recrystallised in ethanol)	deliquesce at relative humidity ([1]; second batch, salt manufactured from ethanol at 68° C.)	SMILES
90-95 % RH	1000			C[C@@H](Oc1nnc(-c2ccncc2)n1C)c1cc(-c2cccc(Cl)c2)on1.Cl [Example 17, 4-(5-{(1R)-1-[5-(3chlorophenyl)isoxazol-3-yl]ethoxy}-4-methyl-4H-1,2,4-triazol-3-yl)pyridine hydrochloride]
		60-70 % relative humidity	70-80 % RH	C[C@@H](Oc1nnc(-c2ccncc2)n1C)c1cc(-c2cccc(Cl)c2)on1.O=S(=O)(O)O [Example 18, 4-(5-{(1R)-1-[5-(3-chlorophenyl)isoxazol-3-yl]ethoxy}-4-methyl-4H-1,2,4-triazol-3-yl)pyridine sulphate]
